Reference: patent publication US11077090B2, “Compounds and compositions and uses thereof” (Sunovion Pharmaceuticals Inc., priority 2016, dated 2021)
Like-named read-outs stand apart in the source and are kept apart here.

System: compound-treated mice
Assay: Neuropharmacological assay (SmartCube): behavioral activity signature and minimal effective dose
Format: in vivo
Conditions: for minimal effective dose: Mus musculus, ip; for AD: ADHD (probability of activity signature) / AG: analgesic (probability of activity signature) / AX: anxiolytic (probability of activity signature) / CE: cognitive enhancer (probability of activity signature) / DP: anti-depressant (probability of activity signature) / MS: mood stabilizer (probability of activity signature) / PS: anti-psychotic (probability of activity signature) / SD: sedative hypnotic (probability of activity signature) / UN: uncharacterized CNS activity (probability of activity signature): i.p. 15 min before test, most efficacious dose(s)
Summary of the method: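 Mice dosed i.p. 15 min before test, compound in N-methyl-2-pyrrolidone/PEG/propylene glycol, 3 doses; video-captured behavior matched to reference-drug signatures, giving per-class probabilities at most efficacious dose. MED from doses typically 0.3–30 mpk, defined as lowest dose with ≥50% total activity.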

[1] = MED = dose having 50% or more total activity, read-out: Potency: minimal effective dose (MED), binned
[2] = MED = dose having 50% or more total activity, read-out: Potency: minimal effective dose (MED)

SMILES	minimal effective dose [1] [mg/kg]	AD: ADHD (probability of activity signature)	AG: analgesic (probability of activity signature)	AX: anxiolytic (probability of activity signature)	CE: cognitive enhancer (probability of activity signature)	DP: anti-depressant (probability of activity signature)	MS: mood stabilizer (probability of activity signature)	PS: anti-psychotic (probability of activity signature)	SD: sedative hypnotic (probability of activity signature)	UN: uncharacterized CNS activity (probability of activity signature)	minimal effective dose [2] [mg/kg]	Potency: minimal effective dose (MED), binned (MED = dose having 50% or more total activity)
C[C@H]1OCc2cc(F)ccc2[C@@H]1N.Cl (single isomer, unassigned) [Example 213]	3 to 10	+ (LOQ ≤ + <5%)	++ (5% ≤ ++ <25%)	++ (5% ≤ ++ <25%)	++ (5% ≤ ++ <25%)	++ (5% ≤ ++ <25%)	+ (LOQ ≤ + <5%)	++ (5% ≤ ++ <25%)	+ (LOQ ≤ + <5%)	+++ (25% ≤ +++ <50%)	–	–
Cl.NC1COCc2ccc3c(c21)CCCO3 (stereo not drawn) [Example 52, 1,2,4,8,9,10-Hexahydropyrano[4,3-f]chromen-1-amine hydrochloride]	–	+ (LOQ ≤ + <5%)	++ (5% ≤ ++ <25%)	+++ (25% ≤ +++ <50%)	++ (5% ≤ ++ <25%)	++ (5% ≤ ++ <25%)	+ (LOQ ≤ + <5%)	++ (5% ≤ ++ <25%)	++ (5% ≤ ++ <25%)	+ (LOQ ≤ + <5%)	3 to 10	–
Cl.NC1COCc2cccc(F)c21 (stereo not drawn) [Example 22]	–	+ (LOQ ≤ + <5%)	++ (5% ≤ ++ <25%)	++ (5% ≤ ++ <25%)	++ (5% ≤ ++ <25%)	++ (5% ≤ ++ <25%)	+ (LOQ ≤ + <5%)	++ (5% ≤ ++ <25%)	+ (LOQ ≤ + <5%)	+++ (25% ≤ +++ <50%)	10 to 30	–
CC[C@@H]1OCc2ccccc2[C@@H]1N.Cl (single isomer, unassigned) [Example 198]	< 3	+ (LOQ ≤ + <5%)	+ (LOQ ≤ + <5%)	++ (5% ≤ ++ <25%)	++ (5% ≤ ++ <25%)	++ (5% ≤ ++ <25%)	+ (LOQ ≤ + <5%)	+++ (25% ≤ +++ <50%)	+ (LOQ ≤ + <5%)	+++ (25% ≤ +++ <50%)	–	–
CC[C@@H]1OCc2ccc(F)cc2[C@@H]1N [Example 187]	< 3	+ (LOQ ≤ + <5%)	++ (5% ≤ ++ <25%)	++ (5% ≤ ++ <25%)	++ (5% ≤ ++ <25%)	+ (LOQ ≤ + <5%)	+ (LOQ ≤ + <5%)	+++ (25% ≤ +++ <50%)	+ (LOQ ≤ + <5%)	++++ (50% ≤ ++++)	–	–
Cl.NC1COCCc2ccccc21 (stereo not drawn) [Example 30]	–	+ (LOQ ≤ + <5%)	++ (5% ≤ ++ <25%)	+ (LOQ ≤ + <5%)	+ (LOQ ≤ + <5%)	+ (LOQ ≤ + <5%)	+ (LOQ ≤ + <5%)	+ (LOQ ≤ + <5%)	+ (LOQ ≤ + <5%)	+ (LOQ ≤ + <5%)	> 30	–
COc1cccc2c1COCC2N.Cl (stereo not drawn) [Example 24]	–	+ (LOQ ≤ + <5%)	+ (LOQ ≤ + <5%)	++ (5% ≤ ++ <25%)	+ (LOQ ≤ + <5%)	++ (5% ≤ ++ <25%)	+ (LOQ ≤ + <5%)	++ (5% ≤ ++ <25%)	++ (5% ≤ ++ <25%)	+ (LOQ ≤ + <5%)	10 to 30	–
C[C@@H]1OCc2c(F)cccc2[C@@H]1N.Cl [Example 215]	3 to 10	+ (LOQ ≤ + <5%)	++ (5% ≤ ++ <25%)	+++ (25% ≤ +++ <50%)	++ (5% ≤ ++ <25%)	++ (5% ≤ ++ <25%)	+ (LOQ ≤ + <5%)	++ (5% ≤ ++ <25%)	++ (5% ≤ ++ <25%)	++++ (50% ≤ ++++)	–	–
Cl.NC1COCc2ccc(Cl)c(Cl)c21 (stereo not drawn) [Example 44, 5,6-Dichloroisochroman-4-amine hydrochloride]	–	+ (LOQ ≤ + <5%)	++ (5% ≤ ++ <25%)	+++ (25% ≤ +++ <50%)	++ (5% ≤ ++ <25%)	++ (5% ≤ ++ <25%)	+ (LOQ ≤ + <5%)	++ (5% ≤ ++ <25%)	++ (5% ≤ ++ <25%)	+++ (25% ≤ +++ <50%)	3 to 10	–
N[C@H]1COCc2ccccc21 (single isomer, unassigned) [Example 112]	–	+ (LOQ ≤ + <5%)	++ (5% ≤ ++ <25%)	++ (5% ≤ ++ <25%)	+++ (25% ≤ +++ <50%)	++ (5% ≤ ++ <25%)	+ (LOQ ≤ + <5%)	++ (5% ≤ ++ <25%)	+ (LOQ ≤ + <5%)	+ (LOQ ≤ + <5%)	10 to 30	–
CC[C@H]1OCc2ccccc2[C@@H]1N(C)C.Cl (single isomer, unassigned) [Example 261]	10 to 30	++ (5% ≤ ++ <25%)	+ (LOQ ≤ + <5%)	+ (LOQ ≤ + <5%)	+ (LOQ ≤ + <5%)	++++ (50% ≤ ++++)	+ (LOQ ≤ + <5%)	+ (LOQ ≤ + <5%)	++ (5% ≤ ++ <25%)	++ (5% ≤ ++ <25%)	–	–
CC(C)c1ccc2c(c1)C(N)COC2.Cl (stereo not drawn) [Example 8, 6-Isopropylisochroman-4-amine hydrochloride]	–	+ (LOQ ≤ + <5%)	++ (5% ≤ ++ <25%)	++ (5% ≤ ++ <25%)	++ (5% ≤ ++ <25%)	++ (5% ≤ ++ <25%)	+ (LOQ ≤ + <5%)	++ (5% ≤ ++ <25%)	+++ (25% ≤ +++ <50%)	++ (5% ≤ ++ <25%)	10 to 30	–
Cl.NC1COCc2ccc3c(c21)C1CCC3C1 (single isomer, unassigned) [Example 161]	–	+ (LOQ ≤ + <5%)	++ (5% ≤ ++ <25%)	+++ (25% ≤ +++ <50%)	++ (5% ≤ ++ <25%)	++ (5% ≤ ++ <25%)	+ (LOQ ≤ + <5%)	++ (5% ≤ ++ <25%)	+ (LOQ ≤ + <5%)	++ (5% ≤ ++ <25%)	–	B (>3 to 10 mpk)
CCN(C)C(=O)Oc1ccc2c(c1)COCC2N(C)C.Cl (stereo not drawn) [Example 283]	3 to 10	++ (5% ≤ ++ <25%)	+ (LOQ ≤ + <5%)	++ (5% ≤ ++ <25%)	+ (LOQ ≤ + <5%)	++ (5% ≤ ++ <25%)	+++ (25% ≤ +++ <50%)	++ (5% ≤ ++ <25%)	++ (5% ≤ ++ <25%)	++ (5% ≤ ++ <25%)	–	–
C[C@@H]1OCc2cccc(Cl)c2[C@@H]1N.Cl [Example 80]	–	+ (LOQ ≤ + <5%)	++ (5% ≤ ++ <25%)	+++ (25% ≤ +++ <50%)	+ (LOQ ≤ + <5%)	+ (LOQ ≤ + <5%)	+ (LOQ ≤ + <5%)	++ (5% ≤ ++ <25%)	++ (5% ≤ ++ <25%)	+++ (25% ≤ +++ <50%)	< 3	–
